According to US10344019B2 (priority 2010, dated 2019):
pEC50: −log10 of the molar value. Where two headings read alike, the source gives them in different places.

Legend:
Experiment in all cases: microbe, parasite or virus in culture
Assay type in all cases: cell-based
[1] = test system: HCV 1b RLuc cells (dicistronic genotype 1b Con1 replicon, RLuc reporter); settings: Hepatitis C virus, read-out: 1b (nM)
Summary of the method: (§1)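 Replicons used: genotype 1b Con1, 1a H77, 2a JFH-1, and a 2a JFH-1 chimera with J6-strain NS5A (M31 present), all dicistronic.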

[2] = test system: HCV 3a RLuc cells (NS5A chimeric genotype 1b Con1 replicon with consensus genotype 3a NS5A gene); settings: Hepatitis C virus
Summary of the method: (§2)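 Replicon cells stably carrying the listed RLuc-encoding dicistronic replicons were seeded and treated with DMSO serial dilutions of compound (10 mM stocks) diluted into culture medium. After 72 h, cells were lysed and Renilla luciferase activity measured. EC50 was derived by non-linear regression.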

[3] = test system: HCV 1a RLuc cells (dicistronic genotype 1a H77 replicon, RLuc reporter); settings: Hepatitis C virus, read-out: 1a
Summary of the method: as §1

[4] = test system: HCV 2a JFH-1 Rluc cells (dicistronic genotype 2a JFH-1 replicon, RLuc reporter); settings: Hepatitis C virus, genotype 2a JFH-1 replicon, read-out: 2a JFH
Summary of the method: as §1

[5] = test system: HCV 4a Rluc cells (NS5A chimeric genotype 1b Con1 replicon with genotype 4a NS5A gene); settings: Hepatitis C virus, read-out: 4a
Summary of the method: as §2

[6] = read-out: 3a, Table 2, genotype 3a NS5A chimeric replicon
[7] = 72 h, Table 2, genotype 1a H77 replicon, 72 hours
[8] = read-out: 3a, genotype 3a NS5A chimeric 1b Con1 replicon
[9] = genotype 1a H77 replicon, RLuc reporter
[10] = read-out: 3a, genotype 3a replicon

## COC(=O)N[C@H](C(=O)N1CC2(C[C@H]1c1ncc(-c3ccc4cc(-c5ccc(-c6cnc([C@@H]7CCCN7C(=O)[C@H](NC(=O)OC)c7ccccc7)[nH]6)cc5)ccc4c3)[nH]1)OCCO2)C1CCOCC1 [Example 44]
[1]; 72 h
  EC50: 0.032 nM
[2]; [6]
  pEC50: 8.30 to 9.00
[3]; [7]
  pEC50: 9.00 to 12.00
[4]; 72 h, Table 2, 72 hours
  pEC50: 9.00 to 12.00
[5]
  pEC50: 9.00 to 12.00

## COC(=O)N[C@H](C(=O)N1[C@@H]2CC[C@@H](C2)[C@H]1c1nc2ccc(-c3ccc4c(c3)C(F)(F)c3cc(-c5cnc([C@@H]6CCCN6C(=O)[C@H](NC(=O)OC)c6ccccc6)[nH]5)ccc3-4)cc2[nH]1)C1CCOCC1 [Example 57]
[1]; 72 h
  EC50: 0.009 nM
[2]; [6]
  pEC50: 9.00 to 12.00
[3]; [7]
  pEC50: 9.00 to 12.00
[4]; 72 h, Table 2, 72 hours
  pEC50: 9.00 to 12.00
[5]
  pEC50: 9.00 to 12.00

## COC(=O)N[C@H](C(=O)N1CCC[C@H]1c1nc2c([nH]1)-c1ccc(-c3ccc4cc(-c5cnc([C@@H]6CCCN6C(=O)[C@H](NC(=O)C6CCOCC6)c6ccccc6)[nH]5)ccc4c3)cc1CC2)C(C)C [Example 246]
[1]
  EC50: 0.045 nM
[2]; [8]
  pEC50: 9.00 to 12.00
[3]; [9]
  pEC50: 9.00 to 12.00
[4]; RLuc reporter
  pEC50: 9.00 to 12.00
[5]
  pEC50: 9.00 to 12.00

## COC(=O)N[C@H](C(=O)N1CCC[C@H]1c1ncc(-c2ccc(-c3ccc4c(c3)c3ccccc3c3nc([C@@H]5CCCN5C(=O)[C@@H](NC(=O)OC)C(C)C)[nH]c43)cc2)[nH]1)C(C)C [Example 299]
[1]
  EC50: 0.017 nM
[2]; [10]
  pEC50: < 8.30
[3]; genotype 1a replicon
  pEC50: 7.36 to 9.00
[4]
  pEC50: 7.36 to 9.00
[5]
  pEC50: 9.00 to 12.00

## COC(=O)N[C@H](C(=O)N1CCC[C@H]1c1nc2ccc3cc(-c4ccc(-c5cnc([C@@H]6CCCN6C(=O)[C@@H](NC(=O)OC)C6CCOCC6)[nH]5)cc4C#CC4CC4)ccc3c2[nH]1)C(C)C [Example 350]
[1]
  EC50: 0.02 nM
[2]; [10]
  pEC50: 9.00 to 12.00
[3]; genotype 1a replicon
  pEC50: 9.00 to 12.00
[4]
  pEC50: 9.00 to 12.00
[5]
  pEC50: 9.00 to 12.00

## COC(=O)N[C@H](C(=O)N1CCC[C@H]1c1ncc(-c2ccc3cc(-c4ccc(-c5cnc([C@@H]6CC7(CN6C(=O)[C@H](NC(=O)OC)c6ccccc6)OCCO7)[nH]5)cc4)ccc3c2)[nH]1)C(C)C [Example 45]
[1]; 72 h
  EC50: 0.014 nM
[2]; [6]
  pEC50: 8.30 to 9.00
[3]; [7]
  pEC50: 9.00 to 12.00
[4]; 72 h, Table 2, 72 hours
  pEC50: 9.00 to 12.00
[5]
  pEC50: 9.00 to 12.00

## COC(=O)N[C@H](C(=O)N1CCC[C@H]1c1nc2c([nH]1)-c1ccc(-c3ccc4cc(-c5cnc([C@@H]6CCCN6C(=O)[C@H](NC(=O)C(C)(C)O)c6ccccc6)[nH]5)ccc4c3)cc1CC2)C(C)C [Example 244]
[1]
  EC50: 0.014 nM
[2]; [8]
  pEC50: 9.00 to 12.00
[3]; [9]
  pEC50: 9.00 to 12.00
[4]; RLuc reporter
  pEC50: 9.00 to 12.00
[5]
  pEC50: 9.00 to 12.00

## COC(=O)N[C@H](C(=O)N1[C@@H]2C[C@@H]2C[C@H]1c1nc2ccc3cc(-c4ccc5c(ccc6nc([C@@H]7[C@H]8CC[C@H](C8)N7C(=O)[C@H](NC(=O)OC)c7ccccc7)[nH]c65)c4)ccc3c2[nH]1)C(C)C [Example 343]
[1]
  EC50: 0.012 nM
[2]; [10]
  pEC50: 9.00 to 12.00
[3]; genotype 1a replicon
  pEC50: 9.00 to 12.00
[4]
  pEC50: 9.00 to 12.00
[5]
  pEC50: 9.00 to 12.00

## COC(=O)N[C@H](C(=O)N1CCC[C@H]1c1nc2ccc(-c3ccc4c(c3)C(F)(F)c3cc(-c5c[nH]c([C@@H]6CCCN6C(=O)[C@@H](NC(=O)OC)C6CCOCC6)n5)ccc3-4)cc2[nH]1)C(C)C [Example 219]
[1]
  EC50: 0.008 nM
[2]; [8]
  pEC50: 8.30 to 9.00
[3]; [9]
  pEC50: 9.00 to 12.00
[4]; RLuc reporter
  pEC50: 9.00 to 12.00
[5]
  pEC50: 9.00 to 12.00

## COC(=O)N[C@H](C(=O)N1CCC[C@H]1c1ncc(-c2ccc3c(c2)sc2cc(-c4cnc([C@@H]5CCCN5C(=O)[C@H](NC(=O)OC)c5ccccc5)[nH]4)ccc23)[nH]1)C(C)C [Example 250]
[1]
  EC50: 0.004 nM
[2]; [8]
  pEC50: 9.00 to 12.00
[3]; [9]
  pEC50: 9.00 to 12.00
[4]; RLuc reporter
  pEC50: 9.00 to 12.00
[5]
  pEC50: 9.00 to 12.00

## COC(=O)N[C@H](C(=O)N1[C@@H]2CC[C@@H](C2)[C@H]1c1ncc(-c2ccc(-c3ccc4c(ccc5nc([C@@H]6CCCN6C(=O)[C@@H](NC(=O)OC)C6CCOCC6)[nH]c54)c3)cc2F)[nH]1)C(C)C [Example 302]
[1]
  EC50: 0.021 nM
[2]; [10]
  pEC50: 9.00 to 12.00
[3]; genotype 1a replicon
  pEC50: 9.00 to 12.00
[4]
  pEC50: 9.00 to 12.00
[5]
  pEC50: 9.00 to 12.00
